These results are taken from patent publication US20160075682A1, “INHIBITORS OF NICOTINAMIDE PHOSPHORIBOSYLTRANSFERASE, COMPOSITIONS, PRODUCTS AND USES THEREOF” (UNIVERSITÀ DEGLI STUDI DEL PIEMONTE ORIENTALE "AMEDEO …, priority 2013, published 2016).

Structures are written as SMILES.

Data set [1] is described as follows: Microsomal stability with human liver microsomes. The format is in vitro ADME. The note with it: 50 μM substrate, 1.0 mg/mL protein, 60 minutes at 37° C., pH 7.4. On the procedure:
(§1) Male Wistar rat liver microsomes (RLM), (protein concentration: 25 mg/ml determined using the Omura and Sato method, total P450: 0.64 nmol/mg protein) were used throughout this study and prepared using an internal protocol. The cryopreserved pooled human liver microsomes (HLM), (pooled mixed sex, ten individual donors, protein concentration: 20 mg/ml, total P450: 0.36 nmol/mg) were purchased from BD Gentest™ (Woburn, Mass.) and used throughout this study.
(§2) The standard incubation mixture (1 ml final volume), was carried out in a 50 mM TRIS (Tris[hydroxymethyl]aminomethane) buffer (pH 7.4) containing 10 μl of acetonitrile (1% of total volume), and 50 μM substrate compounds. After pre-equilibration of the mixture, an appropriate volume of RLM or HLM suspension was added to give a final protein concentration of 1.0 mg/mL. The mixture was shaken for 60 minutes at 37° C. Control incubations were carried out without microsomes. Each incubation was stopped by addition of 1 ml ice-cold acetonitrile, vortexed and centrifuged at 11,000 r.p.m. for 5 min. The supernatants were analysed by LC-DAD-UV and LC-ESI-MS systems to determine the metabolic stability (% substrate residue) and the structure of metabolites respectively (Table 1).
(§3) A Shimadzu HPLC system (Shimadzu, Kyoto, Japan), consisting of two LC-10AD Vp module pumps, an SLC-10A Vp system controller, an SIL-10AD Vp autosampler, and a DGU-14-A on-line degasser were used for the analysis. Chromatographic separation was performed on a Phenomenex Luna C18(2) 150×4.6 mm (5 μm) (Phenomenex srl, Castel Bolognese, Italy) as a stationary phase protected by a C18 SecurityGuard (Phenomenex srl, Castel Bolognese, Italy). The SPD-M10Avp photodiode array detector was used to detect the analytes. LC-Solution 1.24 software was used to process the chromatograms. Aliquots (20 μL) of supernatants obtained from incubations were injected onto the HPLC system and eluted with a mobile phase (flow rate 1.0 mL/min) consisting of a A: 0.5% formic acid solution, B: acetonitrile/methanol 8:2. A Thermo Finningan LCQ Deca XP plus system equipped with a quaternary pump, a Surveyor AS autosampler, a Surveyor photodiode array detector and a vacuum degasser was used for LC/MS analyses (Thermo Electron Corporation, Waltham, Mass.). All the chromatographic separations were performed on a Phenomenex Luna C18(2)150×2 mm (4 μm) (kept at a 35° C.) as a stationary phase protected by a C18 SecurityGuard (Phenomenex srl, Castel Bolognese, Italy). Aliquots (2.0 μl) of supernatants obtained from incubations were injected onto the system and eluted with a mobile phase (flow rate 0.2 ml/min) consisting of a A: 0.2% formic acid solution, B: acetonitrile/methanol 8:2. The eluate was injected into the electrospray ion source (ESI) and MS and MS^n spectra were acquired and processed using Xcalibur® software. The operating conditions on the ion trap mass spectrometer were as follows: Positive mode, spray voltage, 5.30 kV; source current, 80 μA; capillary temperature, 350° C.; capillary voltage, 21.00 V; tube lens offset, 15.00 V; multipole 1 offset, −5.75 V; multipole 2 offset, −9.00 V; sheath gas flow (N2), 55 Auxiliary Units.
A general note: Microsomes from liver hold many membrane-bound enzymes, among them those of drug oxidation.

Data set [2] has as its system spinal cord injury in male adult CD1 mice. Nature of the data set: Spinal cord injury by clip compression, motor function. The format is in vivo. The note with it: i.p. one and 6 hours post injury. As to the method: Male adult CD1 mice (25-30 g, Harlan Nossan, Milan, Italy) were used for all studies. Mice were housed in individual cages (5 for each group) and maintained under 12:12 light-dark cycle at 21±1° C. and 50±5% humidity.
Spinal cord injury (SCI) was induced in male adult mice by the clip compression technique (Genovese et al. J. Pharmacol. Exp. Ther. 2008a, 325, 100-14). SHAM-operated animals were taken as control. Drugs were given i.p. one and 6 hours post injury. Animal care was in compliance with Italian regulations on protection of animals used for experimental and other scientific purpose (D.M. 116192) and with the EEC regulations (O.J. of E.C. L 358/1 Dec. 18, 1986). Animals were sacrificed at post-injury (at least five animals/experimental group were analysed).
The motor function of mice subjected to SCI was assessed once a day for 7 days after injury.
The evaluations were made by two blind observers for all analyzed groups.
Briefly, the BMS is a nine-point scale that pro vides a gross indication of locomotor ability and determines the phases of locomotor recovery and features of locomotion. The BMS score was determined for ten mice in each group. Spinal cord tissues were taken at 24 hours after trauma. Tissue was used for histological grading of the damage or for immunocytochemistry with inflammation, cell death or autophagy markers.
As previously described, the spinal cord of male adult CD1 mice was injured by the clip compression technique, compound of formula (I) was administered and the motor function was assessed.

Data set [3] can be described thus: Metabolites generated from hydrolyses in RLM or HLM incubations (LC-ESI-MS). The format is in vitro ADME, rat, human. The note with it: RLM or HLM incubation, 60 minutes at 37° C. As to the method:
as §1, §2, §3

The subject of data set [4] is DNBS-induced colitis in BALB/c mice. Nature of the data set: Experimental colitis induced by DNBS. The format is in vivo. Particulars: i.p.; for MPO in the colon / NAMPT in the colon / TNFalpha in the colon / VEGF in the colon: DNBS-treated mice, between 20 mg/Kg and 500 mg/Kg, compared to untreated colitis mice; for protection from DNBS-induced colitis as assessed by the macroscopic damage score: doses of between 20 mg/Kg and 500 mg/Kg. On the procedure: Animal work was authorized by the local ethical committee for animal studies (Università del Piemonte Orientale). BALB/c mice (Harlan Nossan, Milan, Italy) were anesthetized by enflurane. Dinitrobenzene sulfonic acid (DNBS; 4 mg in 100 μl of 50% ethanol) was injected into the rectum through a catheter inserted 4.5 cm proximally to the anus. Carrier alone (100 μl of 50% ethanol) was administered in control experiments. Thereafter, the animals were kept for 15 minutes in a Trendelenburg position to avoid reflux. Treatment with either solvent alone or drugs was done immediately after induction and thereafter twice a day. […] On Day 4, the animals were weighed and anaesthetized with chloral hydrate, and the abdomen was opened by a midline incision. The colon was removed, freed from surrounding tissues, opened along the antimesenteric border, rinsed, weighed, and processed for histology, biochemical measurements and immunohistochemistry. Colon damage (macroscopic damage score) was evaluated and scored by two independent observers according to the following criteria: 0, no damage; 1, localized hyperemia without ulcers; 2, linear ulcers with no significant inflammation; 3, linear ulcers with inflammation at one site; 4, two or more major sites of inflammation and ulceration extending >1 cm along the length of the colon; and 5-8, one point is added for each centimeter of ulceration beyond an initial 2 cm. Biochemical and histological analysis also included TNFalpha measurements and myeloperoxidase (MPO) measurements by ELISA assay, and VEGF, NAMPT, COX-2 measurements by immunoblotting. (Esposito E, Mazzon E, Paterniti I, Dal Toso R, Pressi G, Caminiti R, Cuzzocrea S. PPAR-alpha Contributes to the Anti-Inflammatory Activity of Verbascoside in a Model of Inflammatory Bowel Disease in Mice. PPAR Res. 2010; 2010:917312).
As previously described, the colon of DNBS- or dextran treated animals was removed after the induction of colitis. Compounds of formula (I) were administered intraperitoneally (i.p.).

Take `c1ccc(-c2ccccc2OCCCCCCn2cc(-c3cccnc3)nn2)cc1` [3-(1-(6-([1,1′-biphenyl]-2-yloxy)hexyl)-1H-1,2,3-triazol-4-yl)pyridine]: in data set [1], the “HLM stability % substrate residue (area peak)” value was greater than 96%. In addition, in data set [2], the motor recovery result was “partial motor recovery” and the protection from injury result is given as “partially protect from injury”. The “Metabolites generated from hydrolyses” value in data set [3] was “no”. Besides, in data set [4], the “MPO in the colon” value is listed as “able to reduce”, the “NAMPT in the colon” value is listed as “able to reduce”, the “TNFalpha in the colon” value is reported as “able to reduce” and the “VEGF in the colon” value was “able to reduce”. For the same compound, the “protection from DNBS-induced colitis as assessed by the macroscopic damage score” value in data set [4] is given as “able to protect”.
As for `O=C(NCCCCCCCn1cc(-c2cccnc2)nn1)c1ccccc1-c1ccccc1` [N-(7-(4-(pyridin-3-yl)-1H-1,2,3-triazol-1-yl)heptyl)-[1,1′-biphenyl]-2-carboxamide], the “HLM stability % substrate residue (area peak)” value in data set [1] was greater than 99%. Further, in data set [2], the motor recovery result was “partial motor recovery” and the protection from injury result is “partially protect from injury”. Also, the “Metabolites generated from hydrolyses” value in data set [3] is recorded as “no”. In data set [4], the “MPO in the colon” value was “able to reduce”, the “NAMPT in the colon” value was “able to reduce”, the “TNFalpha in the colon” value is on record as “able to reduce” and the “VEGF in the colon” value is on record as “able to reduce”. The “protection from DNBS-induced colitis as assessed by the macroscopic damage score” value in data set [4] is listed as “able to protect”.
